Laboratory results from ChEMBL document CHEMBL5260858, “Targeting mycobacterial membranes and membrane proteins: Progress and limitations” (Bioorg Med Chem, 2023).
Values after ≈ are worked out from the molar mass of the structure shown.

Legend:
[1] = tested on: Mycobacterium tuberculosis; assay: Antitubercular activity against multidrug resistant Mycobacterium tuberculosis assessed as bacterial growth inhibition incubated for 6 days by resazurin based fluorescence assay; type: functional; conditions: 144 h, time 6 day
[2] = tested on: Mycobacterium tuberculosis; assay: Antitubercular activity against extensively drug resistant Mycobacterium tuberculosis assessed as bacterial growth inhibition incubated for 6 days by resazurin based fluorescence assay; type: functional; conditions: 144 h, time 6 day
[3] = tested on: Mycobacterium tuberculosis; assay: Antitubercular activity against Mycobacterium tuberculosis H37Rv overexpressing DprE1 assessed as bacterial growth inhibition; type: functional
[4] = tested on: Mycobacterium tuberculosis; assay: Antitubercular activity against multidrug-resistant clinical isolate Mycobacterium tuberculosis CDCT-3 assessed as bacterial growth inhibition; type: functional
[5] = tested on: Mycobacterium tuberculosis; assay: Antitubercular activity against multidrug-resistant clinical isolate Mycobacterium tuberculosis CDCT-27 assessed as bacterial growth inhibition; type: functional
[6] = tested on: Mycobacterium tuberculosis; assay: Antitubercular activity against multidrug-resistant clinical isolate Mycobacterium tuberculosis CDCT-2 assessed as bacterial growth inhibition; type: functional
[7] = tested on: Mycobacterium tuberculosis; assay: Antitubercular activity against multidrug resistant Mycobacterium tuberculosis SK-7782 assessed as bacterial growth inhibition by resazurin microtiter assay; type: functional
[8] = tested on: Mycobacterium tuberculosis; assay: microbe, parasite or virus in culture; conditions: 144 h
[9] = tested on: Mycobacterium tuberculosis; assay: microbe, parasite or virus in culture; conditions: 144 h; remark: listed apart in the source
[10] = tested on: Mycobacterium tuberculosis; assay: Antimycobacterial activity against BTZ-resistant Mycobacterium tuberculosis NTB1 assessed as bacterial growth inhibition incubated for 6 days by resazurin dye based assay; type: functional; conditions: NTB1, 144 h, time 6 day
[11] = tested on: Mycobacterium tuberculosis; assay: Antimycobacterial activity against multidrug resistant Mycobacterium tuberculosis 16833 assessed as bacterial growth inhibition incubated for 7 days by microplate Alamar blue assay; type: functional; conditions: Mycobacterium tuberculosis, 16833, 168 h; time 7 day
[12] = tested on: Mycobacterium tuberculosis; assay: Antimycobacterial activity against multidrug resistant Mycobacterium tuberculosis 16995 assessed as bacterial growth inhibition incubated for 7 days by microplate Alamar blue assay; type: functional; conditions: Mycobacterium tuberculosis, 16995, 168 h; time 7 day
[13] = tested on: Mycobacterium tuberculosis; assay: Antimycobacterial activity against clinically isolated multidrug resistant Mycobacterium tuberculosis assessed as bacterial growth inhibition incubated for 14 days by CLSI protocol based assay; type: functional; conditions: 336 h, time 14 day
[14] = tested on: Mycobacterium tuberculosis; assay: Antitubercular activity against multidrug resistant Mycobacterium tuberculosis clinical isolate assessed as bacterial growth inhibition; type: functional
[15] = tested on: Mycobacterium tuberculosis; assay: Antitubercular activity against ethambutol resistant Mycobacterium tuberculosis ATCC 35837 inhibition infected in RAW264.7 cells assessed as inhibition of intracellular bacterial growth incubated for 6 days by microplate alamar blue assay; type: functional; parameters: scale not given: the % may be the effect or the level left; conditions: time 6 day
[16] = tested on: Mycobacterium tuberculosis; assay: Antitubercular activity against isoniazid resistant Mycobacterium tuberculosis ATCC 35822 infected in RAW264.7 cells assessed as inhibition of intracellular bacterial growth incubated for 6 days by microplate alamar blue assay; type: functional; parameters: scale not given: the % may be the effect or the level left; conditions: time 6 day
[17] = tested on: Mycobacterium tuberculosis; assay: Antitubercular activity against rifampicin resistant Mycobacterium tuberculosis ATCC 35838 infected in RAW264.7 cells assessed as inhibition of intracellular bacterial growth incubated for 6 days by microplate alamar blue assay; type: functional; parameters: scale not given: the % may be the effect or the level left; conditions: time 6 day

c1cc2c(s1)CCOC21CCN(Cc2ccc3c(c2)OCCO3)CC1
MIC [1]: 0.3 µM (≈ 0.107 µg/mL) | MIC [2]: 0.3 µM (≈ 0.107 µg/mL)

C[C@@H](NC(=O)c1cc([N+](=O)[O-])cc(C(F)(F)F)c1)c1ccccc1
MIC [3]: 310 ng/mL (≈ 0.916 µM)

CCCc1ccc(NC(=O)COc2cc(C)nc3ccc(OC)cc23)cc1
MIC [4]: 8 ng/mL (≈ 0.022 µM) | MIC [5]: 4 ng/mL (≈ 0.011 µM) | MIC [6]: < 2 ng/mL

CCCCCc1ccc(NC(=O)COc2cc(C)nc3ccc(OC)cc23)cc1
MIC [4]: < 2 ng/mL | MIC [5]: < 2 ng/mL | MIC [6]: < 2 ng/mL

CCc1ccc(NC(=O)COc2cc(C)nc3ccc(OC)cc23)cc1
MIC [4]: 8 ng/mL (≈ 0.0228 µM) | MIC [5]: 8 ng/mL (≈ 0.0228 µM) | MIC [6]: < 2 ng/mL

CC1(C)CC(=O)C(=CNc2ccccc2O)C(=O)C1
MIC90 [7]: 8000 ng/mL (≈ 30.9 µM)

CNC(=O)c1c(-c2ccc(O)cc2)oc2ccc(O)c(CN3CCCCC3)c12
MIC [8]: 0.125 µM (≈ 0.0476 µg/mL) | MIC [9]: 0.06 µM (≈ 0.0228 µg/mL)

COc1ccc(/C=C2/S/C(=N/N=C/c3ccccc3O)NC2=O)cc1
MIC90 [7]: 1000 ng/mL (≈ 2.83 µM)

O=c1nc(N2CCN(S(=O)(=O)C3CC3)CC2)sc2c([N+](=O)[O-])cc(C(F)(F)F)cc12
MIC [10]: 14700 ng/mL (≈ 31.7 µM)

O=c1nc(N2CC3CN(Cc4ccc(OC(F)(F)F)cc4)CC3C2)sc2c([N+](=O)[O-])cc(C(F)(F)F)cc12 (stereo not given)
MIC [11]: 0.085 µM (≈ 0.0476 µg/mL) | MIC [12]: 0.053 µM (≈ 0.0297 µg/mL)

CCS(=O)(=O)N1CCN(c2nc(=O)c3cc(C(F)(F)F)cc([N+](=O)[O-])c3s2)CC1
MIC [10]: 25100 ng/mL (≈ 55.5 µM)

O=c1nc(N2CC3CN(Cc4ccc(Cl)c(F)c4)CC3C2)sc2c([N+](=O)[O-])cc(C(F)(F)F)cc12 (stereo not given)
MIC [11]: 0.102 µM (≈ 0.0539 µg/mL) | MIC [12]: 0.073 µM (≈ 0.0386 µg/mL)

CCc1ccc([C@H]2C[C@@H](C(F)(F)F)n3ncc(C(=O)NCc4ccc(OC)cc4)c3N2)cc1
MIC [1]: 0.16 µM (≈ 0.0734 µg/mL) | MIC [2]: 0.3 µM (≈ 0.138 µg/mL)

O=c1nc(N2CCN(S(=O)(=O)c3cccs3)CC2)sc2c([N+](=O)[O-])cc(C(F)(F)F)cc12
MIC [10]: > 100000 ng/mL

C[C@@]1(COc2ccc(N3CCC(Oc4ccc(OC(F)(F)F)cc4)CC3)cc2)Cn2cc([N+](=O)[O-])nc2O1
MIC [13]: 6 ng/mL (≈ 0.0112 µM)

COc1nc2ccc(Br)cc2cc1[C@@H](c1ccccc1)[C@@](O)(CCN(C)C)c1cccc2ccccc12 [BEDAQUILINE]
MIC [14]: 10 ng/mL (≈ 0.018 µM)

CC(C)=CCC/C(C)=C/CNCCNC1C2CC3CC(C2)CC1C3 (stereo not given) [SQ109]
Activity [15]: 99% | Activity [16]: 99% | Activity [17]: 99%
